Data: patent publication US8637516B2 (IRM LLC, priority 2010, dated 2014)
Like-named read-outs stand apart in the source and are kept apart here.

What was measured:
[1] = Rat PK (PO 10 mg/kg, IV 3 mg/Kg); assay type: in vivo; details: for F / clearance / half-life / Vd / AUC / Cmax: Rat; for F / AUC / Cmax: PO 10 mg/kg, MC/Tween 80 suspension; for F / clearance / half-life / Vd: IV 3 mg/Kg; for clearance / half-life / Vd / AUC / Cmax: in vivo; for Vd: read-out: Vss
[2] = target: T1, Ba/F3 cells transformed with human Tel-TrkA (Homo sapiens, UniProt P04629); test: Proliferation of Ba/F3 cells transformed with human Tel-TrkA (Ba/F3 Tel-TrkA); assay type: cell-based
T1 construct: expressed in transfected cells; host or cells: Ba/F3 murine hematopoietic progenitor cells (luciferase expressing); the other entry of the earlier key: ETV6 (P41212, Transcription factor ETV6)
T1 sequence (P04629 510-796 limits assumed): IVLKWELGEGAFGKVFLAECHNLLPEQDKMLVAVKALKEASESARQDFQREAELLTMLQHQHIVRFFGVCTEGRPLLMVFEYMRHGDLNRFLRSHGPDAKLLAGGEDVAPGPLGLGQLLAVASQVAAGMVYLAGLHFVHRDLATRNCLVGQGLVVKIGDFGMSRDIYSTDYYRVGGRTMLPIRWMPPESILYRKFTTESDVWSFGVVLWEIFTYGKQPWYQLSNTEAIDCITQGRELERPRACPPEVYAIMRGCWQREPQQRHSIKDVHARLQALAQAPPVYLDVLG
From the text: Compound dilutions were made in 384 well plates.
The emited luminiscence is quantified using ViewLux (PerkinElmer).

parental Ba/F3 cells = test: Proliferation of parental (untransformed, wt) Ba/F3 cells (BAF3/WT); assay type: cell-based, murine; details: Mus musculus, Table 1, parental cells with IL3, 48 hours
Method in brief: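 Parental Ba/F3 cells, maintained with mouse IL-3, were plated at 700 cells/well with compound (0.17 nM to 10 uM, 3-fold dilutions). After 48 h at 37 °C, proliferation was read by Bright-Glo luminescence.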

[3] = Table 1, 48 hours, Bright Glo luminescence, read-out: Ba/F3 Tel-TrkA

Row | SMILES | F [1] [%] | clearance [1] [mL/min/kg] | half-life [1] [min] | Vd [1] [L/kg] | AUC [1] [µM·h] | Cmax [1] [nM] | AUC compared with compound #3 of WO2010/033941 ([1]; in words) | Cmax compared with compound #3 of WO2010/033941 ([1]; in words) | IC50 [2, 3] [nM] | IC50 ([2]; Table 2, read-out: Ba/F3_Te1-Trk-A) [nM] | IC50 (parental Ba/F3 cells) [nM]
1 | NC(=O)c1cnc2ccc(N3C[C@@H](F)C[C@@H]3c3cc(F)ccc3F)nn12 [X-242] | 28.2 | 18.4 | 74.4 | 1.58 | 7.09 | 1730 | significant and unexpected increases | significant and unexpected increases | 0.5 | 0.5 | 2450
2 | CC(=O)Nc1cnc2ccc(N3CCC[C@@H]3c3cc(F)ccc3F)nn12 [reference compound] | 1.5 | 79.2 | 12 | 1 | 0.087 | 61 |  |  |  |  | 
3 | N#CCC(=O)Nc1cnc2ccc(N3CCC[C@@H]3c3cccc(F)c3)nn12 [X-184] |  |  |  |  |  |  |  |  | 291 |  | > 10000
4 | O=C(NCCC1CCCC1)c1cnc2ccc(N3CCC[C@@H]3c3cccc(F)c3)nn12 [X-108] |  |  |  |  |  |  |  |  | 191 |  | 6480
5 | O=C(NCCCl)Nc1cnc2ccc(N3CCC[C@H]3c3cccc(F)c3)nn12 [X-209] |  |  |  |  |  |  |  |  | 252 |  | > 10000
6 | CC(C)NC(=O)c1ccc(F)cc1C1CC(F)(F)CN1c1ccc2ncc(C(N)=O)n2n1 (stereo not shown) [X-250] |  |  |  |  |  |  |  |  | 64 |  | > 10000
